Laboratory results reported in ChEMBL document CHEMBL4765476, “MCC950, a NLRP3 inhibitor, ameliorates lipopolysaccharide-induced lung inflammation in mice” (Bioorg Med Chem, 2021).
The source made the active and inactive calls. No cut-off for these calls is given here.

Experiments:
[1] = tested on: Mus musculus; experiment: Antiinflammatory activity in ICR mouse assessed as reduction in LPS-induced IL-8 mRNA expression in lungs at 0.5 mg/kg, ip administered 18 hrs before LPS-stimulation and measured after 24 hrs by qRT-PCR analysis; format: functional, organism-based; settings: time 42.0 hrs
[2] = tested on: Mus musculus; experiment: Antiinflammatory activity in ICR mouse assessed as reduction in LPS-induced TGF-beta1 mRNA expression in lungs at 0.5 mg/kg, INH administered 18 hrs before LPS-stimulation and measured after 24 hrs by qRT-PCR analysis; format: functional, organism-based; settings: time 42.0 hrs
[3] = tested on: Mus musculus; experiment: Antiinflammatory activity in ICR mouse assessed as reduction in LPS-induced IL-1beta expression in lungs at 0.5 mg/kg, INH administered 18 hrs before LPS-stimulation and measured after 24 hrs by Western blot analysis; format: functional, organism-based; settings: time 42.0 hrs
[4] = tested on: Mus musculus; experiment: Antiinflammatory activity in ICR mouse assessed as reduction in LPS-induced MMP-9 mRNA expression in lungs at 0.5 mg/kg, INH administered 18 hrs before LPS-stimulation and measured after 24 hrs by qRT-PCR analysis; format: functional, organism-based; settings: time 42.0 hrs
[5] = tested on: Mus musculus; experiment: Antiinflammatory activity in ICR mouse assessed as reduction in LPS-induced neutrophil level in BALF at 0.5 mg/kg, ip administered 18 hrs before LPS-stimulation and measured after 24 hrs by FACS analysis relative to control; format: functional; settings: time 42 hrs
[6] = tested on: Mus musculus; experiment: Antiinflammatory activity in ICR mouse assessed as reduction in LPS-induced neutrophil infiltration in lungs at 0.5 mg/kg, ip administered 18 hrs before LPS-stimulation and measured after 24 hrs by H and E staining based imaging analysis relative to control; format: functional; settings: time 42 hrs
[7] = tested on: Mus musculus; experiment: Antiinflammatory activity in ICR mouse assessed as reduction in LPS-induced lymphocyte level in BALF at 0.5 mg/kg, ip administered 18 hrs before LPS-stimulation and measured after 24 hrs by FACS analysis relative to control; format: functional; settings: time 42 hrs
[8] = tested on: Mus musculus; experiment: Antiinflammatory activity in ICR mouse assessed as reduction in LPS-induced IL-18 expression in serum at 0.5 mg/kg, ip administered 18 hrs before LPS-stimulation and measured after 24 hrs by ELISA; format: functional, organism-based
[9] = tested on: Mus musculus; experiment: Antiinflammatory activity in ICR mouse assessed as reduction in LPS-induced IL-8 mRNA expression in lungs at 0.5 mg/kg, INH administered 18 hrs before LPS-stimulation and measured after 24 hrs by qRT-PCR analysis; format: functional, organism-based; settings: time 42.0 hrs
[10] = tested on: Mus musculus; experiment: Antiinflammatory activity in ICR mouse assessed as reduction in LPS-induced IL-1beta mRNA expression in lungs at 0.5 mg/kg, ip administered 18 hrs before LPS-stimulation and measured after 24 hrs by qRT-PCR analysis; format: functional, organism-based; settings: time 42.0 hrs
[11] = tested on: Mus musculus; experiment: Antiinflammatory activity in ICR mouse assessed as reduction in LPS-induced MMP-9 mRNA expression in lungs at 0.5 mg/kg, ip administered 18 hrs before LPS-stimulation and measured after 24 hrs by qRT-PCR analysis; format: functional, organism-based; settings: time 42.0 hrs
[12] = tested on: Mus musculus; experiment: Antiinflammatory activity in ICR mouse assessed as reduction in LPS-induced IL-1beta expression in serum at 0.5 mg/kg, ip administered 18 hrs before LPS-stimulation and measured after 24 hrs by ELISA; format: functional, organism-based; settings: time 42.0 hrs
[13] = tested on: Mus musculus; experiment: Antiinflammatory activity in ICR mouse assessed as reduction in LPS-induced lymphocyte level in BALF at 0.5 mg/kg, INH administered 18 hrs before LPS-stimulation and measured after 24 hrs by FACS analysis relative to control; format: functional; settings: time 42 hrs
[14] = tested on: Mus musculus; experiment: Antiinflammatory activity in ICR mouse assessed as reduction in LPS-induced IL-18 expression in serum at 0.5 mg/kg, INH administered 18 hrs before LPS-stimulation and measured after 24 hrs by ELISA; format: functional, organism-based; settings: time 42.0 hrs
[15] = tested on: Mus musculus; experiment: Antiinflammatory activity in ICR mouse assessed as reduction in LPS-induced macrophage level in BALF at 0.5 mg/kg, ip administered 18 hrs before LPS-stimulation and measured after 24 hrs by FACS analysis relative to control; format: functional; settings: time 42 hrs
[16] = tested on: Mus musculus; experiment: Antiinflammatory activity in ICR mouse assessed as reduction in LPS-induced IL-1beta expression in serum at 0.5 mg/kg, INH administered 18 hrs before LPS-stimulation and measured after 24 hrs by ELISA; format: functional, organism-based; settings: time 42.0 hrs
[17] = tested on: Mus musculus; experiment: Antiinflammatory activity in ICR mouse assessed as reduction in LPS-induced caspase-1 expression in lungs at 0.5 mg/kg, ip administered 18 hrs before LPS-stimulation and measured after 24 hrs by Western blot analysis; format: functional, organism-based; settings: time 42.0 hrs
[18] = tested on: Mus musculus; experiment: Antiinflammatory activity in ICR mouse assessed as reduction in LPS-induced caspase-1 expression in lungs at 0.5 mg/kg, INH administered 18 hrs before LPS-stimulation and measured after 24 hrs by Western blot analysis; format: functional, organism-based; settings: time 42.0 hrs
[19] = tested on: Mus musculus; experiment: Antiinflammatory activity in ICR mouse assessed as reduction in LPS-induced neutrophil level in BALF at 0.5 mg/kg, INH administered 18 hrs before LPS-stimulation and measured after 24 hrs by FACS analysis relative to control; format: functional; settings: time 42 hrs
[20] = tested on: Mus musculus; experiment: Antiinflammatory activity in ICR mouse assessed as reduction in LPS-induced neutrophil infiltration in lungs at 0.5 mg/kg, INH administered 18 hrs before LPS-stimulation and measured after 24 hrs by H and E staining based imaging analysis relative to control; format: functional; settings: time 42 hrs
[21] = tested on: Mus musculus; experiment: Antiinflammatory activity in ICR mouse assessed as reduction in LPS-induced IL-1beta expression in lungs at 0.5 mg/kg, ip administered 18 hrs before LPS-stimulation and measured after 24 hrs by Western blot analysis; format: functional, organism-based; settings: time 42.0 hrs
[22] = tested on: Mus musculus; experiment: Antiinflammatory activity in ICR mouse assessed as reduction in LPS-induced TGF-beta1 mRNA expression in lungs at 0.5 mg/kg, ip administered 18 hrs before LPS-stimulation and measured after 24 hrs by qRT-PCR analysis; format: functional, organism-based; settings: time 42.0 hrs
[23] = tested on: Mus musculus; experiment: Antiinflammatory activity in ICR mouse assessed as reduction in LPS-induced macrophage level in BALF at 0.5 mg/kg, INH administered 18 hrs before LPS-stimulation and measured after 24 hrs by FACS analysis relative to control; format: functional; settings: time 42 hrs
[24] = tested on: Mus musculus; experiment: Antiinflammatory activity in ICR mouse assessed as reduction in LPS-induced IL-1beta mRNA expression in lungs at 0.5 mg/kg, INH administered 18 hrs before LPS-stimulation and measured after 24 hrs by qRT-PCR analysis; format: functional, organism-based; settings: time 42.0 hrs

Structure (SMILES): C[C@@H]1C[C@H]2[C@@H]3CCC4=CC(=O)C=C[C@]4(C)[C@@]3(F)[C@@H](O)C[C@]2(C)[C@@]1(O)C(=O)CO [DEXAMETHASONE]
- inhibition [1]: Active
- inhibition [2]: Active
- inhibition [3]: Active
- inhibition [4]: Active
- inhibition in vivo at 0.5 mg/kg [5]: 66.9%
- inhibition in vivo at 0.5 mg/kg [6]: 58.7%
- inhibition in vivo at 0.5 mg/kg [7]: 46.1%
- inhibition [8]: Active
- inhibition [9]: Active
- inhibition [10]: Active
- inhibition [11]: Active
- inhibition [12]: Active
- inhibition in vivo at 0.5 mg/kg [13]: 30.6%
- inhibition [14]: Active
- inhibition in vivo at 0.5 mg/kg [15]: 75.1%
- inhibition [16]: Active
- inhibition [17]: Active
- inhibition [18]: Active
- inhibition in vivo at 0.5 mg/kg [19]: 72.9%
- inhibition in vivo at 0.5 mg/kg [20]: 55.9%
- inhibition [21]: Active
- inhibition [22]: Active
- inhibition in vivo at 0.5 mg/kg [23]: 40.9%
- inhibition [24]: Active
